{
  "source": "patent US20080318958A1",
  "about": "“New utilities of tricyclic compounds” (priority 2001, published 2008)",
  "data": [
    {"test_system": "promoter region of the gene encoding human apoAI", "assay": "Activity to enhance the expression of human apoAI: apoAI promoter-firefly luciferase reporter in stably transfected HepG2 cells", "format": "cell-based", "settings": "concentration that intensified the luciferase activity twice compared to DMSO control, 24 hours incubation with compound, read-out: MED (minimal effective dose)", "experimental": "The promoter region of the gene encoding human apoAI was isolated, and ligated upstream the structure gene of firefly luciferase to construct a reporter plasmid. The reporter plasmid and a marker plasmid conferring the neomycin resistance were co-infected to cell lines derived from human hepatoma, HepG2 cells, and the cell lines were incubated in a selection medium comprising DMEM medium containing 10% fetal calf serum supplemented with G418 (Final concentration: 0.7 mg/mL, Gibco) to give established strains that stably expressed the reporter molecule. The strains were seeded to a 96-well culture plates at a density of 50,000 cells per well, and incubated for 48 hours at 37° C. under an atmosphere of 5% carbon dioxide. Then, a solution of the compounds according to the invention in DMSO was added to the wells at final concentrations of 0 to 10 μg/mL. After further incubation for 24 hours, the cells were added with a luciferase assay reagent (Piccagene LT 7.5 registered trade mark, Toyo Ink, KK), and the luciferase activity was determined using a luminometer (MicroBeta™ TRILUX, 1 sec/well, Wallac). The concentration of the compounds, which intensified the luciferase activity twice compared to that of control (DMSO without any compound of the invention added) was set as the minimal effective dose (MED).", "units": {"EC (2-fold luciferase activity)": "µM"}, "values": [
      {"molecule": "CC(=O)Nc1ccc(-c2ccc(-c3ccccn3)cc2)cc1", "note": "[Compound I-43]", "EC (2-fold luciferase activity)": 0.3},
      {"molecule": "COc1cccc(-c2cnc(-c3cccc(OC)c3)cn2)c1", "note": "[Compound I-35]", "EC (2-fold luciferase activity)": 0.29},
      {"molecule": "c1ccc(-c2ccc(-c3ccsc3)cc2)nc1", "note": "[Compound I-36, 2-[4-(3-Thienyl)phenyl]pyridine]", "EC (2-fold luciferase activity)": 1.3},
      {"molecule": "COc1cc(-c2ccc(O)cc2)c(OC)c(O)c1-c1ccc2c(c1)OC(O)CO2", "note": "(stereo not drawn) [Compound I-45]", "EC (2-fold luciferase activity)": 2.4},
      {"molecule": "c1ccc(-c2ccc(-c3ccccc3)nn2)cc1", "note": "[Compound I-7]", "EC (2-fold luciferase activity)": 0.04},
      {"molecule": "COc1cc(OC)nc(-c2ccc(-c3ccccc3)cc2)n1", "note": "[Compound I-24]", "EC (2-fold luciferase activity)": 2.2},
      {"molecule": "Clc1ccc(-c2ccc(-c3ccccc3)cc2)nn1", "note": "[Compound I-26]", "EC (2-fold luciferase activity)": 0.27},
      {"molecule": "Cc1cc(-c2ccc(-c3ccccc3)cc2)nc2ccccc12", "note": "[Compound I-18]", "EC (2-fold luciferase activity)": 1.1},
      {"molecule": "c1ccc(-c2cncc(-c3ccccc3)n2)cc1", "note": "[Compound I-6]", "EC (2-fold luciferase activity)": 3.11},
      {"molecule": "Cc1cccc(-c2ccc(-c3ccccc3)cc2)n1", "note": "[Compound I-21]", "EC (2-fold luciferase activity)": 2.3},
      {"molecule": "c1ccc(-c2ccc(-c3ccoc3)cc2)nc1", "note": "[Compound I-37]", "EC (2-fold luciferase activity)": 4.4},
      {"molecule": "c1ccc(-c2ccc(-c3ccccn3)cc2)cc1", "note": "[Compound I-20]", "EC (2-fold luciferase activity)": 0.23},
      {"molecule": "Cc1ccc(-c2ccc(-c3ccccn3)cc2)cc1", "note": "[Compound I-42]", "EC (2-fold luciferase activity)": 0.09},
      {"molecule": "c1ccc(-c2ccc(-c3cnc4ccccc4n3)cc2)cc1", "note": "[Compound I-16]", "EC (2-fold luciferase activity)": 0.1},
      {"molecule": "c1ccc(-c2ccc(-c3ccc4ccccc4n3)cc2)cc1", "note": "[Compound I-17]", "EC (2-fold luciferase activity)": 0.33},
      {"molecule": "COc1cccc(-c2ccc(-c3ccccc3)cc2)n1", "note": "[Compound I-22]", "EC (2-fold luciferase activity)": 0.84},
      {"molecule": "CCc1cnc(-c2ccc(-c3ccccc3)cc2)nc1", "note": "[Compound I-23]", "EC (2-fold luciferase activity)": 0.27},
      {"molecule": "c1ccc(-c2ccc(-c3cccnn3)cc2)cc1", "note": "[Compound I-25]", "EC (2-fold luciferase activity)": 0.29},
      {"molecule": "c1ccc(-c2ccc(-c3ncccn3)cc2)cc1", "note": "[Compound I-8]", "EC (2-fold luciferase activity)": 0.09},
      {"molecule": "C#CC1COc2ccc(-c3c(OC)cc(-c4ccc(O)cc4)c(OC)c3O)cc2O1", "note": "(stereo not drawn) [Compound I-44]", "EC (2-fold luciferase activity)": 0.6},
      {"molecule": "COc1nc(OC)nc(-c2ccc(-c3ccccc3)cc2)n1", "note": "[Compound I-29]", "EC (2-fold luciferase activity)": 2.5},
      {"molecule": "c1ccc(-c2ccc(-c3ccncn3)cc2)cc1", "note": "[Compound I-1]", "EC (2-fold luciferase activity)": 0.63},
      {"molecule": "c1ccc(-c2ccc(-c3cnccn3)cc2)cc1", "note": "[Compound I-10]", "EC (2-fold luciferase activity)": 0.71},
      {"molecule": "COc1cc(-c2ccc(O)cc2)c(OC)c(O)c1-c1ccc(OC/C=N/C2CCN(C)CC2)c(O)c1", "note": "[Compound I-48]", "EC (2-fold luciferase activity)": 1.6},
      {"molecule": "c1ccc(-c2cnc(-c3ccccc3)nc2)cc1", "note": "[Compound I-2]", "EC (2-fold luciferase activity)": 0.2},
      {"molecule": "c1ccc(-c2ccc(-c3ccc(-c4ccccc4)nn3)cc2)cc1", "note": "[Compound I-28]", "EC (2-fold luciferase activity)": 2.5},
      {"molecule": "COc1ccc(-c2ccc(-c3ccccc3)cc2)nn1", "note": "[Compound I-27, 3-(4-Biphenyl)-6-methoxypyridazin]", "EC (2-fold luciferase activity)": 0.06},
      {"molecule": "c1ccc(-c2ccc(-c3ccccc3)nc2)cc1", "note": "[Compound I-11]", "EC (2-fold luciferase activity)": 0.21},
      {"molecule": "COc1ccc(-c2ccc(-c3ccccn3)cc2)cc1", "note": "[Compound I-40]", "EC (2-fold luciferase activity)": 0.16}
    ]},
    {"test_system": "not given", "assay": "not given", "settings": "not given", "units": {"melting point": "°C"}, "values": [
      {"molecule": "COc1ccc(-c2nnc(-c3ccccc3)c3ccccc23)cc1", "note": "[Compound I-13]", "melting point": "175 to 177"},
      {"molecule": "c1ccc(-c2cccc(-c3ncccn3)c2)cc1", "note": "[Compound I-9]", "melting point": "46 to 48"},
      {"molecule": "c1ccc(-c2ccc(-c3ccccc3)nn2)cc1", "note": "[Compound I-7]", "melting point": "218 to 220"},
      {"molecule": "c1ccc(-c2cncc(-c3ccccc3)n2)cc1", "note": "[Compound I-6]", "melting point": "88.5 to 90"},
      {"molecule": "c1ccc(-c2nnc(-c3ccccc3)c3ccccc23)cc1", "note": "[Compound I-12]", "melting point": "203 to 205"},
      {"molecule": "c1ccc(-c2ccc(-c3ncccn3)cc2)cc1", "note": "[Compound I-8]", "melting point": "112 to 113"},
      {"molecule": "c1ccc(-c2cc(-c3ccccc3)ncn2)cc1", "note": "[Compound I-5]", "melting point": "91 to 92"},
      {"molecule": "c1ccc(-c2ccnc(-c3ccccc3)n2)cc1", "note": "[Compound I-4]", "melting point": "66 to 69"},
      {"molecule": "c1ccc(-c2ccc(-c3cnccn3)cc2)cc1", "note": "[Compound I-10]", "melting point": "177 to 178"},
      {"molecule": "c1ccc(-c2ccc(-c3ccccc3)nc2)cc1", "note": "[Compound I-11]", "melting point": "176 to 177"}
    ]}
  ]
}
